Results reported in US12168003B2, “Selective inhibition of T follicular helper cells for treatment of autoimmune disorders” (priority 2019, dated 2024).

How the values were obtained:
[1] = test system: differentiated TH1, TH2 or TH17 cells; assay: In vitro CD4+ T cell differentiation and cytokine production; format: cell-based, mouse; settings: 20 μM 4EGI-1, 48 hours
Experimental: Naïve CD4^+ T cells were isolated (EasySep™ Naïve CD4^+ T cell isolation; StemCell) and incubated in mouse T cell media (described under “Silencing of eIF4E in OT2 T cells by lentivirus transduction section”) containing soluble 1 μg/mL anti-CD28, cytokines, and anti-cytokine antibodies as detailed for polarization to TH1: 10 ng/mL mouse IL-12, 50 U/mL human IL-2, 10 μg/mL anti-mouse IL-4; TH2: 10 ng/mL mouse IL-4, 50 U/mL human IL-2, 10 μg/mL anti-mouse IFN-γ; TH17: 20 ng/mL mouse IL-6, 10 ng/mL mouse IL-23, 10 ng/mL mouse IL-113, 2 ng/mL human TGF-β1, 50 U/mL human IL-2 […], 10 μg/mL anti-mouse IFN-γ; and Treg: 2 ng/mL mouse TGFβ, 300 U/mL human IL-2. TH1, TH2, and TH17 differentiation kits (Cytobox) along with human IL-2 were purchased from Miltenyi Biotec. Mouse TGFβ was purchased from BioLegend®. Naïve CD4^+ T cells in conditions described above were activated on 10 μg/mL anti-CD3 coated plates for 3 days. Following differentiation, 20 μM 4EGI-1 was added to T cell cultures for 48 hours. Supernatant was removed and cytokine levels were determined using LEGENDPlex Mouse Th Cytokine Panel (BioLegend®).

[2] = test system: TH2 cells and Tregs; assay: A. fumigatus repeat sensitization airway disease model; format: in vivo, mouse
Experimental: A. fumigatus Fresenius (ATCC 13073) was grown for 7 days on potato dextrose agar plates (Thermo Scientific) at 37° C. Conidia were harvested by agitation in a flask with sterile PBS+0.1% Tween-20 and filtered through a 40 μm nylon mesh. Mice were intratracheally sensitized with 1.8×10^6 conidia in 50 μL of PBS on days 0, 7, and 11. On day 0 through 17 mice were treated daily with i.p. 25 mg/kg 4EGI-1 or vehicle. On day 18, mice were euthanized and lungs were collected along with mediastinal lymph node (MedLN) and blood. Serum was obtained and stored as described above.
Spleens, draining lymph nodes, and brains were dissociated with the plunger-end of a syringe and passed through a 70 μm nylon filter. Splenocytes were subject to RBC lysis with ACK (Ammonium-Chloride-Potassium). Ears were subject to mechanical dissociation with scissors prior to incubation in 1 mL PBS in a 48-well plate with 100 μg/mL Liberase TL and 20 μg/mL DNase I for 1.5 hours at 37° C. Following incubation, cells were further dissociated by passing through a syringe, quenched with PBS+2% FCS, and filtered through a 70 μm nylon filter. Lungs were mechanically dissociated with a razor blade and incubated in a 6 cm dish with 5 mLs RPMI containing 250 μg/mL collagenase, 50 μg/mL Liberase TL, 1 mg/mL hyaluronidase, and 200 μg/mL DNase I for 30 minutes. Following incubation, cells quenched with PBS+2% FCS, and filtered through a 70 μm nylon filter. Ear and lung cells were subject to lymphocyte isolation using a gradient (Lymphocyte Separation Medium; Cellgro). Vertebral columns were flushed with PBS through a 19-gauge needle to remove intact spinal cords. Spinal cords were subject to mechanical dissociation with scissors and incubation in 1 mL PBS with 200 μg/mL DNase I and 50 μg/mL Liberase TL for 30 minutes at 37° C. Following incubation, cells were quenched with PBS+2% FCS and filtered through a 70 μm nylon filter.
(§1) For quantification of OVA-specific IgG1, high-binding 96-well plates (Costar) were coated with 10 μg/mL OVA protein. For S. aureus-specific IgG1, plates were coated with heat-killed S. aureus (heat-killed at 80° C. for 30 min). For total IgE, plates were coated with 2 μg/mL rat anti-mouse IgE (Southern Biotech). Following overnight incubation at 4° C., plates were blocked with 1% BSA for 30 min at 37° C. After blocking, serum (diluted 1/20 initially then 1/2 down the plate) was incubated at 37° C. for 2 hours, plates were washed 3 times in PBS and then incubated with 1:1000 anti-mouse IgG1-HRP (Southern Biotech) or anti-mouse IgE-HRP (Southern Biotech) for 1 hour at 37° C. Plates were washed 3 times in PBS and incubated with TMB substrate. Following development, TMB Stop Solution (BioLegend®) was added and plates were read at […].
Lungs fixed in 4% PFA (ThermoFisher) and spinal cords fixed in 10% buffered formalin (Leica) were incubated overnight and moved to 70% ethanol prior to ethanol dehydration, xylene incubation, and paraffin embedding. Five-micron thick sections of lung were stained with hematoxylin and eosin (H&E), Periodic Acid-Schiff (PAS), or Masson's Trichrome Stain (MTS). Spinal cords were stained with H&E or Luxol fast blue and hematoxylin (LFB-H). Staining was visualized with an EVOS FLc microscope.

[3] = test system: pre-existing TFH cells; assay: OVA/Alum immunization, 4EGI-1 after formation of TFH cells; format: in vivo, mouse
Experimental: OVA protein (Sigma A5503) was diluted in PBS and then in 20 mg/mL Imject Alum (ThermoFisher 77161) and mixed at room temperature for 30 minutes prior to i.p. injection of 100 μg OVA in 200 μL. When stated, mice were treated i.p. daily from day 0 to 6 or day 0 to 13 (just for TFR analysis) following OVA/Alum immunization with 25 mg/kg 4EGI-1 (MedChemExpress) or from day 7 to 13 following OVA/Alum immunization with 50 mg/kg or 75 mg/kg 4EGI-1. Vehicle control mice were administered 6 μL DMSO in 194 μL PBS i.p.
PVDF-coated 96-well plates (Millipore) were activated with methanol for 2 minutes, washed with PBS, and coated with 4 μg/mL OVA overnight at 4° C. Plates were blocked with 1% BSA for 2 hours at 37° C. prior to incubation with 1×10^7 splenocytes in RPMI containing 2% Ultra-low IgG FCS, 55 μM 2ME, and 100 U/mL penicillin and 100 μg/mL streptomycin in the top well. Cells were diluted by 1/2 each row going down the plate and incubated immobile overnight at 37° C. Plates were washed with water+0.05% Tween 20 for 5 min prior to 3 washes in PBS+0.05% Tween-20 for 10 minutes. Plates were incubated with 1:1000 HRP-coupled goat anti-mouse IgG1 antibody (Southern Biotech) in PBS+0.05% Tween 20 for 2 h prior to 3 washes in PBS+0.05% Tween 20 and incubation in tetramethylbenzidine (TMB) ELISA substrate buffer (ThermoFisher). Plates were washed once in distilled deionized water and spots were manually enumerated and antibody-secreting cells (ASC) per million splenocytes was determined.
as §1

[4] = 25 mg/kg daily i.p., lung sections
[5] = mediastinal lymph nodes, day 18
[6] = 75 mg/kg, day 7 to 13 after OVA/Alum
[7] = 4EGI-1 day 7 to 13 after OVA/Alum

Which “secretion of IFN-γ or TNF-α by differentiated TH1 cells” value [1] does the source give for `O=C(O)C(Cc1ccccc1[N+](=O)[O-])=NNc1nc(-c2ccc(Cl)c(Cl)c2)cs1` (mixture of isomers) [4EGI-1] here?
Its value is “not altered”.

What about the “secretion of IL-13 by in vitro differentiated TH2 cells” value [1] of the same compound?
The value was “did not affect”.

What about the “secretion of IL-17A or IL-17F by differentiated TH17 cells” value [1] of the same compound?
The value was “not altered”.

What about the “levels of pulmonary TH2 cells (GATA3+ or IL-13+)” value ([2]; 25 mg/kg daily i.p., day 18) of the same compound?
Its value is “no effect”.

And the “levels of pulmonary Tregs (Foxp3+)” value ([2]; 25 mg/kg daily i.p., day 18)?
Its value is “no effect”.

And the “levels of pulmonary eosinophils” value ([2]; 25 mg/kg daily i.p., day 18)?
Its value is “no effect”.

And the airway inflammation [2, 4]?
Its airway inflammation is “no effect”.

And the mucin production [2, 4]?
Its mucin production is “no effect”.

And the “formation of GC B cells in draining lymph nodes” value [2, 5]?
Its value is “strongly reduced”.

And the “formation of TFH cells in draining lymph nodes” value [2, 5]?
Its value is “strongly reduced”.

What about the “secretion of class-switched immunoglobulins” value ([2]; serum total IgE, day 18) of the same compound?
Its value is “strongly reduced”.

What about the “reduction of CD4+ T cell protein synthesis (SUnSET)” value [3, 6] of the same compound?
Its value is “approximately half”.

And the “total number of CD4+ T cells in spleen” value [3, 6]?
Its value is “without significantly reducing”.

And the “reduction of levels of GC B cells” value [3, 7]?
Its value is 3 fold.

What about the “reduction of levels of OVA-specific IgG1 ASC cells” value [3, 7] of the same compound?
Its value is 3 fold.

And the “reduction of levels of pre-existing splenic CD4+ TFH cells” value [3, 7]?
Its value is 3 fold.

What about the “serum OVA-specific IgG1 antibody” value [3, 7] of the same compound?
Its value is “moderately reduced”.
